Measurements as given in paper PMC6270601, “Dimeric Labdane Diterpenes: Synthesis and Antiproliferative Effects” (Molecules, 2013).

What was measured:
[1] = tested on: SK-MES-1 lung cancer cells; experiment: Antiproliferative assay (MTT reduction), SK-MES-1 lung cancer cells; type: cell-based, human; conditions: for IC50: Homo sapiens, 72 h, SK-MES-1 lung cancer cells, 3 days treatment, MTT reduction, mean ± SD, >100 µM considered inactive; for antiproliferative activity against SK-MES-1 (in words): up to 100 µM
Method: (§1) All human cell lines used in this work were purchased from the American Type Culture Collection (ATCC, Manasas, VA, USA). […] Promyelocytic leukemia HL-60 cells (CCL-240) were grown in suspension in RPM1 medium containing 1 mM sodium pyruvate and 2.0 g/L sodium bicarbonate. All media were supplemented with 10% heat-inactivated FBS, 100 IU/mL penicillin and 100 µg/mL streptomycin. Cells were grown in a humidified incubator with 5% CO2 in air at 37 °C. For the antiproliferative assay, adherent cells were plated at a density of 5 × 10^4 cells/mL and HL-60 cells at 30 × 10^4 cells/mL. Cells were seeded in 96-well plates (100 µL/well). One day after seeding, cells were treated with medium containing the compounds at concentrations ranging from 0 up to 100 µM during 3 days. The compounds were dissolved in DMSO (1% final concentration) and complete medium. Untreated cells (medium containing 1% DMSO) were used as 100% viability controls. […] Each concentration was tested in sextuplicate and experiments were repeated 2 times. Cell viability was determined by means of the MTT reduction assay at the end of the incubation with the products.

[2] = tested on: J82 bladder carcinoma cells; experiment: Antiproliferative assay (MTT reduction), J82 bladder carcinoma cells; type: cell-based, human; conditions: for IC50: Homo sapiens, 72 h, J82 bladder carcinoma, 3 days treatment, MTT reduction, mean ± SD, >100 µM considered inactive; for antiproliferative activity against J82 (in words): up to 100 µM
Method: as §1

AGS cells = experiment: Antiproliferative assay (MTT reduction), AGS gastric adenocarcinoma cells; type: cell-based, human; conditions: for IC50: Homo sapiens, 72 h, AGS gastric adenocarcinoma, 3 days treatment, MTT reduction, mean ± SD, >100 µM considered inactive; for antiproliferative activity against AGS (in words): up to 100 µM
Method: (§2) The compounds 1–20 were assessed for antiproliferative effect towards human lung fibroblasts (MRC-5) and the following human tumor cell lines: gastric adenocarcinoma (AGS), lung cancer cells (SK-MES-1), bladder carcinoma (J82) and promyelocytic leukemia (HL-60).
(§3) All human cell lines used in this work were purchased from the American Type Culture Collection (ATCC, Manasas, VA, USA). Normal lung MRC-5 fibroblasts (CCL-171), SK-MES-1 lung cancer cells (HTB-58) and J82 bladder carcinoma cells (HTB-1) were grown as monolayers in minimum essential Eagle medium (MEM) with Earles’s salts, 2 mM L-glutamine and 1.5 g/L sodium bicarbonate. Gastric adenocarcinoma AGS cells (CRL-1739) were grown as monolayers in Ham F-12 medium containing 1 mM L-glutamine and 1.5 g/L sodium bicarbonate. Promyelocytic leukemia HL-60 cells (CCL-240) were grown in suspension in RPM1 medium containing 1 mM sodium pyruvate and 2.0 g/L sodium bicarbonate. All media were supplemented with 10% heat-inactivated FBS, 100 IU/mL penicillin and 100 µg/mL streptomycin. Cells were grown in a humidified incubator with 5% CO2 in air at 37 °C. For the antiproliferative assay, adherent cells were plated at a density of 5 × 10^4 cells/mL and HL-60 cells at 30 × 10^4 cells/mL. Cells were seeded in 96-well plates (100 µL/well). One day after seeding, cells were treated with medium containing the compounds at concentrations ranging from 0 up to 100 µM during 3 days. The compounds were dissolved in DMSO (1% final concentration) and complete medium. Untreated cells (medium containing 1% DMSO) were used as 100% viability controls. […] Each concentration was tested in sextuplicate and experiments were repeated 2 times. Cell viability was determined by means of the MTT reduction assay at the end of the incubation with the products. The results were transformed to percentage of controls and the IC50 values were graphically obtained from the dose-response curves.

MRC-5 normal fibroblasts = experiment: Antiproliferative assay (MTT reduction), MRC-5 normal lung fibroblasts; type: cell-based, human; conditions: for IC50: Homo sapiens, MRC5, 72 h, MRC-5 normal fibroblasts, 3 days treatment, MTT reduction, mean ± SD, >100 µM considered inactive; for antiproliferative activity against MRC-5 (in words): up to 100 µM
Method: as §1

HL-60 cells = experiment: Antiproliferative assay (MTT reduction), HL-60 promyelocytic leukemia cells; type: cell-based, human; conditions: for IC50: Homo sapiens, 72 h, HL-60 promyelocytic leukemia, 3 days treatment, MTT reduction, mean ± SD, >100 µM considered inactive; for antiproliferative activity against HL-60 (in words): up to 100 µM
Method: as §1

[3] = tested on: MRC-5, AGS, SK-MES-1, J82 and HL-60 cell lines; experiment: Antiproliferative assay, panel of five human cell lines (summary in words); type: cell-based; conditions: SK-MES-1, J82, HL-60, up to 100 µM
Method: as §2, §3

Row | SMILES | IC50 [1] [µM] | IC50 [2] [µM] | IC50 (AGS cells) [µM] | IC50 (MRC-5 normal fibroblasts) [µM] | IC50 (HL-60 cells) [µM] | antiproliferative effect on the five cell lines (in words) [3] | antiproliferative activity against SK-MES-1 (in words) [1] | antiproliferative activity against J82 (in words) [2] | antiproliferative activity against AGS (in words) (AGS cells) | antiproliferative activity against MRC-5 (in words) (MRC-5 normal fibroblasts) | antiproliferative activity against HL-60 (in words) (HL-60 cells)
1 | C=C1CCC2[C@](C)(CCC[C@]2(C)C(=O)OC)[C@H]1CC[C@@H](C)CCO (some centres unmarked) [Compound 1, 15-Hydroxyimbricatolic acid methyl ester] | 59.7 ± 2.4 | 63.7 ± 2.6 | 38.5 ± 1.6 | 77.7 ± 4 | 47.5 ± 3.9 | – | – | – | – | – | –
2 | C=C1CCC2[C@](C)(CCC[C@]2(C)C(=O)O)[C@H]1CC[C@@H](C)CC(=O)O (some centres unmarked) [Compound 2, Labd-8(17)-en-15,19-dioic acid] | > 100 | > 100 | > 100 | > 100 | > 100 | no antiproliferative effect on any of the cell lines | – | – | – | – | –
3 | C=C1CCC2[C@](C)(CCC[C@]2(C)C(=O)OC)[C@H]1CC[C@@H](C)CCN=[N+]=[N-] (some centres unmarked) [Compound 3, 15-Azidoimbricatolic acid methyl ester] | 67.6 ± 3.4 | > 100 | 73.8 ± 5.2 | 91.8 ± 6.4 | 22.3 ± 3.1 | – | – | – | – | – | –
4 | C=C1CCC2[C@](C)(CCC[C@]2(C)C(=O)OC)[C@H]1CC[C@@H](C)CCn1cc(CO)nn1 (some centres unmarked) [Compound 4, 15-(4-(Hydroxymethyl)-1H-1,2,3-triazol-1-yl)-imbricatolic acid methyl ester] | 67.7 ± 3.1 | 60.7 ± 4.6 | 41.5 ± 2.1 | 77.4 ± 3.9 | > 100 | – | – | – | – | – | –
5 | C=C1CCC2[C@](C)(CCC[C@]2(C)C(=O)OC)[C@H]1CC[C@@H](C)CCn1cc(CCO)nn1 (some centres unmarked) [Compound 5, 15-(4-(2-Hydroxyethyl)-1H-1,2,3-triazol-1-yl)-imbricatolic acid methyl ester] | 57.2 ± 3.4 | 56.2 ± 3.9 | 54.8 ± 3.3 | 75.8 ± 5.3 | 48.9 ± 4.5 | – | – | – | – | – | –
6 | C=C1CCC2[C@](C)(CCC[C@]2(C)C(=O)OC)[C@H]1CC[C@@H](C)CCn1cc(CCC(=O)O)nn1 (some centres unmarked) [Compound 6, 15-(4-(2-Carboxyethyl)-1H-1,2,3-triazol-1-yl)-imbricatolic acid methyl ester] | > 100 | > 100 | > 100 | > 100 | > 100 | no antiproliferative effect on any of the cell lines | – | – | – | – | –
7 | C=C1CCC2[C@](C)(CCC[C@]2(C)C(=O)OC)[C@H]1CC[C@@H](C)CCOCC[C@H](C)CC[C@H]1C(=C)CCC2[C@]1(C)CCC[C@]2(C)C(=O)OC (some centres unmarked) [Compound 7] | > 100 | > 100 | > 100 | > 100 | > 100 | no antiproliferative effect | – | – | – | – | –
8 | C=C1CCC2[C@](C)(CCC[C@]2(C)C(=O)OC)[C@H]1CC[C@@H](C)CCOCCCCOCC[C@H](C)CC[C@H]1C(=C)CCC2[C@]1(C)CCC[C@]2(C)C(=O)OC (some centres unmarked) [Compound 8] | > 100 | > 100 | 70.3 ± 6.3 | > 100 | 57.8 ± 4.1 | – | – | – | – | – | –
9 | C=C1CCC2[C@](C)(CCC[C@]2(C)C(=O)OC)[C@H]1CC[C@@H](C)CCOCCCCCOCC[C@H](C)CC[C@H]1C(=C)CCC2[C@]1(C)CCC[C@]2(C)C(=O)OC (some centres unmarked) [Compound 9] | 67.5 ± 6.9 | > 100 | 17.8 ± 1.3 | 68.1 ± 3.4 | 32.6 ± 2.3 | – | – | – | – | – | –
10 | C=C1CCC2[C@](C)(CCC[C@]2(C)C(=O)OC)[C@H]1CC[C@@H](C)CCOCCCCCCCCCOCC[C@H](C)CC[C@H]1C(=C)CCC2[C@]1(C)CCC[C@]2(C)C(=O)OC (some centres unmarked) [Compound 10] | 67.9 ± 5.4 | > 100 | > 100 | > 100 | > 100 | – | – | – | – | – | –
11 | C=C1CCC2[C@](C)(CCC[C@]2(C)C(=O)O)[C@H]1CC[C@@H](C)CC(=O)OCC[C@H](C)CC[C@H]1C(=C)CCC2[C@]1(C)CCC[C@]2(C)C(=O)OC (some centres unmarked) [Compound 11] | > 100 | > 100 | 26.1 ± 2.2 | 71.2 ± 5.3 | 80.3 ± 5.9 | – | not against SK-MES-1 and J82 cells | not against SK-MES-1 and J82 cells | showed activity | showed activity | showed activity
12 | C=C1CCC2[C@](C)(CCC[C@]2(C)C(=O)OC)[C@H]1CC[C@@H](C)CCOC(=O)C[C@H](C)CC[C@H]1C(=C)CCC2[C@]1(C)CCC[C@]2(C)C(=O)OC (some centres unmarked) [Compound 12] | 38.5 ± 2.8 | 61.4 ± 3.1 | > 100 | > 100 | > 100 | – | showed effect | showed effect | devoid of activity | devoid of activity | devoid of activity
13 | C=C1CCC2[C@](C)(CCC[C@]2(C)C(=O)OC)[C@H]1CC[C@@H](C)CCOC(=O)CCC(=O)OCC[C@H](C)CC[C@H]1C(=C)CCC2[C@]1(C)CCC[C@]2(C)C(=O)OC (some centres unmarked) [Compound 13] | 68.2 ± 4.5 | 72.1 ± 4.3 | 62.9 ± 3.9 | 76.8 ± 5.4 | 60.8 ± 4.2 | – | – | – | – | – | –
14 | C=C1CCC2[C@](C)(CCC[C@]2(C)C(=O)OC)[C@H]1CC[C@@H](C)CCOC(=O)c1ccccc1C(=O)OCC[C@H](C)CC[C@H]1C(=C)CCC2[C@]1(C)CCC[C@]2(C)C(=O)OC (some centres unmarked) [Compound 14] | > 100 | > 100 | 51.7 ± 2.8 | 76.3 ± 5.8 | 55.6 ± 3.9 | – | – | – | – | – | –
15 | C=C1CCC2[C@](C)(CCC[C@]2(C)C(=O)O)[C@H]1CC[C@@H](C)CC(=O)OCc1cn(CC[C@H](C)CC[C@H]2C(=C)CCC3[C@]2(C)CCC[C@]3(C)C(=O)OC)nn1 (some centres unmarked) [Compound 15] | 56 ± 4.5 | 84.7 ± 6.8 | 39.4 ± 2.4 | > 100 | 44.1 ± 4.1 | – | – | – | – | – | –
16 | C=C1CCC2[C@](C)(CCC[C@]2(C)C(=O)OC)[C@H]1CC[C@@H](C)CCn1cc(COC(=O)C[C@H](C)CC[C@H]2C(=C)CCC3[C@]2(C)CCC[C@]3(C)C(=O)OC)nn1 (some centres unmarked) [Compound 16] | > 100 | > 100 | > 100 | > 100 | > 100 | – | – | – | – | – | –
17 | C=C1CCC2[C@](C)(CCC[C@]2(C)C(=O)O)[C@H]1CC[C@@H](C)CC(=O)OCCc1cn(CC[C@H](C)CC[C@H]2C(=C)CCC3[C@]2(C)CCC[C@]3(C)C(=O)OC)nn1 (some centres unmarked) [Compound 17] | 67.5 ± 4.9 | 34.6 ± 2.5 | 23.4 ± 1.4 | 79.6 ± 5.1 | 23.2 ± 3.1 | – | – | – | – | – | –
18 | C=C1CCC2[C@](C)(CCC[C@]2(C)C(=O)OC)[C@H]1CC[C@@H](C)CCn1cc(CCOC(=O)C[C@H](C)CC[C@H]2C(=C)CCC3[C@]2(C)CCC[C@]3(C)C(=O)OC)nn1 (some centres unmarked) [Compound 18] | > 100 | > 100 | > 100 | > 100 | > 100 | – | – | – | – | – | –
19 | COc1cc([C@@H]2c3cc4c(cc3[C@@H](O[C@@H]3O[C@@H]5CO[C@@H](C)O[C@H]5[C@H](O)[C@H]3O)[C@H]3COC(=O)[C@H]23)OCO4)cc(OC)c1O [Etoposide, reference compound] | – | – | 0.58 ± 0.02 | – | – | – | – | – | – | – | –
